Experiments:
[1] = PAMPA membrane permeability assay; assay type: physicochemical; details: pH 7.4 buffer, GIT lipid, 4 hours incubation
Description: The PAMPA assay (pION, Inc., Woburn Mass.) was used to determine the ability of compounds of the invention to cross an artificial lipid membrane by passive diffusion. Test compounds were dissolved in DMSO (10 mM) and diluted 200-fold in buffer (pION Inc., pH 7.4) to provide 50 uM stock solutions. Buffer (150 μL) was added to a UV blank plate and stock solutions (150 μL) were transferred to a UV reference plate. The blank and reference spectrum were read using a spectrophotometer. Stock solutions (200 μL) were added to the donor plate of the PAMPA sandwich plate and an accept plate painted with GIT lipid (pION Inc, 5 μL) was placed on top. Buffer (200 μL) was added to the acceptor plate and the PAMPA sandwich plate was incubated for 4 hours. Aliquots (150 μL) from the acceptor plate were added to a UV plate and read as acceptor spectrum. Aliquots (150 μL) of the donor solutions were added to a UV analysis plate and read as donor spectrum. The permeability coefficient of test compounds was calculated using PAMPA Explorer™ software (version 3.5.0.4) based on the AUC of the reference plate, the donor plate, and the acceptor plate.
The PAMPA permeability results (10^−6 cm/s) of representative compounds are reported as “+” (<0.1 10^−6 cm/s), “++” (0.1-2.0 10^−6 cm/s), “+++” (2.0-10.010^−6 cm/s) or “++++” (>10.0 10^−6 cm/s).

NaV1.7 [2] = molecular target: T1, NaV1.7 (Homo sapiens, UniProt Q15858); assay: Automated patch clamp (Qube 384), internal block of NaV1.7 in HEK293 cells; assay type: cell-based; details: compound in internal solution, read-out: NaV1.7 Intracellular Inhibition
T1 construct: expressed in transfected cells; host or cells: HEK293, tetracycline-inducible
T1 sequence (Q15858 whole entry): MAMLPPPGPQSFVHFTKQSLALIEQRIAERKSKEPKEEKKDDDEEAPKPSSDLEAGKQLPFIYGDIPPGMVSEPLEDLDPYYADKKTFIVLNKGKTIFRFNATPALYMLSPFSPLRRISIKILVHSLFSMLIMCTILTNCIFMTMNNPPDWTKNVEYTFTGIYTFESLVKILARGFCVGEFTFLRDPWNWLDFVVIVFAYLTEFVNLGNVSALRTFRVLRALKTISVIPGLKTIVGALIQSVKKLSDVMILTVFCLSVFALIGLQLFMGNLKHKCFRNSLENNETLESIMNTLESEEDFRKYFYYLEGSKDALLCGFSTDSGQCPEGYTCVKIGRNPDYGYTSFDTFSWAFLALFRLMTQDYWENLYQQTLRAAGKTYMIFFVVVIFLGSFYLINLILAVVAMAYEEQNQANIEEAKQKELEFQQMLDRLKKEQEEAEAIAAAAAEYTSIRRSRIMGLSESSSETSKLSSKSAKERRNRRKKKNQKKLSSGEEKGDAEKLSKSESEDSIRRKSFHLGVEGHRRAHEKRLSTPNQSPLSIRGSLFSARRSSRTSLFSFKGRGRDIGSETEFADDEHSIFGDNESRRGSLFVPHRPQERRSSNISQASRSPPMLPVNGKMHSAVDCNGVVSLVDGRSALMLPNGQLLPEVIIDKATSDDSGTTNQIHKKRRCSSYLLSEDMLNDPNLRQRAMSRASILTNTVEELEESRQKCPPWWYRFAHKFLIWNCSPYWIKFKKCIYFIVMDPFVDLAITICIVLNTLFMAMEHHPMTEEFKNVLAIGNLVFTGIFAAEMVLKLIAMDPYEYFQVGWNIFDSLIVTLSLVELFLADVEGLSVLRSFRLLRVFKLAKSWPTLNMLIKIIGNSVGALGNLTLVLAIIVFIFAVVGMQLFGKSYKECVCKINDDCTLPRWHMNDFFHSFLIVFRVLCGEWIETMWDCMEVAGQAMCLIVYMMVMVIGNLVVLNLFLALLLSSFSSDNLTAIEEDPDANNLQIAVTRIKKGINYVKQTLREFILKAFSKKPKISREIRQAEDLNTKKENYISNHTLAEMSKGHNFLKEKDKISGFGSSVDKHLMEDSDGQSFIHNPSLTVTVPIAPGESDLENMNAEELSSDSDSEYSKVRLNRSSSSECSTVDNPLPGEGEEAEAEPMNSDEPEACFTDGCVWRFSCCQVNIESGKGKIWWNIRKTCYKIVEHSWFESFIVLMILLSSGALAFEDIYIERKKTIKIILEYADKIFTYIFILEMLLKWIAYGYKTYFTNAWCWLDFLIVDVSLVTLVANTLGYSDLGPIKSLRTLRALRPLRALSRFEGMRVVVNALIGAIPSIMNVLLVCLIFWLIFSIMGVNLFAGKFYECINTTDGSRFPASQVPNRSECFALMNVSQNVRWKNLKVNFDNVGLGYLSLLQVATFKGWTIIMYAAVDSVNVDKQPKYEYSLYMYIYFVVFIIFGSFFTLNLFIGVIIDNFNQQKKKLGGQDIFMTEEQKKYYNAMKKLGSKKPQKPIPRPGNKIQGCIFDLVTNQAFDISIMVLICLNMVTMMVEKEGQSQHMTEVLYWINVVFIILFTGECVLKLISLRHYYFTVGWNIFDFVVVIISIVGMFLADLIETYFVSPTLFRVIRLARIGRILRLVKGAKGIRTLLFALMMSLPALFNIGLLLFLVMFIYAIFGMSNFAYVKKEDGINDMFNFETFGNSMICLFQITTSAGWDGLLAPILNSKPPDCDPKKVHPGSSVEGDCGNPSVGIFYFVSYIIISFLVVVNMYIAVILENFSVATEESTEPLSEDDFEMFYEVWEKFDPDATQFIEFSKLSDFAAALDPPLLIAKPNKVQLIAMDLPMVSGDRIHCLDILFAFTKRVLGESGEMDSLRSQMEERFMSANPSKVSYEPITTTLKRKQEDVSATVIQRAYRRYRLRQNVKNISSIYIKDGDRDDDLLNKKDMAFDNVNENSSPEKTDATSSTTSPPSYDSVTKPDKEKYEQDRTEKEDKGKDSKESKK
Description: (§1) NaV1.7 was expressed in HEK293 cells upon induction with tetracycline. Cells were cultured in DMEM containing 10% dialyzed Fetal Bovine Serum (VWR, Radnor, Pa.), 1% Glutamax (VWR, Radnor, Pa.), 1% Penicillin-Streptomycin (VWR, Radnor, Pa.), 100 mg/L Hygromycin (Thermo Fisher Scientific, Waltham, Mass. and 5 mg/L Blasticidin (Alfa Aesar, Haverhill, Mass.). Cells were grown and maintained at 37° C. in a humidified environment containing 10% CO2 in air. Cells were detached from the culture flask for passage and harvested using 0.05% Trypsin-EDTA (Thermo Fisher Scientific, Waltham, Mass.). To induce NaV1.7, cells were induced with tetracycline (0.1-1 μg/mL, IBI Scientific, Peosta, Iowa) the day before recording.
Before experiments, cells were washed with DPBS (VWR, Radnor, Pa.), digested with Detachin (VWR Radnor, Pa.) and then triturated 10 times in CHO Serum-Free Media (VWR Radnor, Pa.) to resuspend the cells and to break apart cell aggregates. Cells were counted and the final concentration was set at 2-5 million cells per mL.
The intracellular solution contained the following: 140 mM CsF, 1 mM/5 mM EGTA/CsOH, 10 mM HEPES, 10 mM NaCl, adjusted to pH 7.3 with CsOH, and osmolality to 320 with sucrose. The external solution contained the following: 145 mM NaCl, 4 mM KCl, 1 mM MgCl2, 2 mM CaCl2, 10 mM HEPES, 10 mM Glucose, adjusted to pH 7.4 with CsOH and osmolality to 305 with sucrose. All chemicals are from Sigma-Aldrich, St. Louis, Mo. In order to test the degree of internal block by test compounds, the compounds were dissolved in internal solution at the indicated test concentration. […] In order to test the degree of external block by test compounds the compounds were dissolved in external solution at the indicated test concentration.
Automated Patch Clamps were performed on Qube 384 (Sophion Bioscience, Woburn Mass.) with multihole Qchips at a temperature setting of 22 degrees. The whole cells configuration was formed with default Qube seal and break-in parameter. The membrane potential was held at −100 mV before the voltage protocol began. Two voltage protocols were followed.
Step 1: Cells were held at −100 mV with a depolarized pulse to −20 mV for 10 ms, the interval was set at 5 s. Currents were corrected by default leak subtraction from every pulse. The duration was set at 5 mins.
Step 2: Cells were held at −100 mV with a depolarized pulse to −20 mV for 10 ms. The frequency was 5 Hz. Currents were corrected by leak subtraction calculated before step 2. The duration was set at 4 mins.
After Step 2, the Qchip was removed from the recording chamber. The internal solution was changed with solutions containing test compounds. Qchips were held at −100 mV without pulsing after being replaced in the recording chamber. The total solution switching time was 8 minutes. After the internal solution exchange, Cells were recorded and step 2 for repeated for 10 minutes.
Data analysis was performed by Sophion Analyzer. Cells were filtered with minimum 50 MOhm seal resistance and minimum 5 nA starting current. The rundown of the currents was corrected with control cells (Non-Drug). The remaining was calculated by averaging last 3 points in the end of experiments. The base line was calculated as the average of last 3 points of Step 2. IC50 curves were plotted with DR-plots/Hill function (a dose-response plot with a Hill fit).
Representative examples of the invention were tested for intracellular inhibition of NaV 1.7 in the automated patch clamp assay. Activity Range is reported as IC50: “++++” (<1 μM), “+++” (1-3 μM), “++” (3-10 μM) or “+” (10-30 μM).

NaV1.7 [3] = molecular target: T1, NaV1.7; assay: Whole cell patch clamp, internal block of NaV1.7 current; assay type: cell-based; details: % inhibition at 1 μM test concentration, compound in internal solution, manual whole cell patch clamp
Description: as §1, with “expressed” for “expressed in HEK293 cells”, “C02” for “CO2”, “recording and plated onto 24-well plates. Cells were washed with DPBS (VWR, Radnor, Pa.), trypsinized and then triturated five times in 10 mL of growth media to break apart cell aggregates. For one 24-well plate, 2 mL of cell suspension was mixed with 23 mL of fresh growth media and 0.1-1 μg/mL tetracycline added. 1 ml of mixed media with cells was then added to each well of a 24-well plate, with a 12 mm coverslip already placed in the bottom of the well. Cells were then incubated in 37° C. and 10% CO2 overnight.” for “recording.”
The intracellular solution contained the following (in mM) CsCl 135, NaCl 10, EGTA 10, HEPES 10, MgCl2 2, adjusted to pH 7.2 with CsOH. The external solution was a normal Ringer solution containing (in mM) NaCl 155, HEPES 10, glucose 10, KCl 3.5, CaCl2 1.5, MgCl2 1 adjusted to pH 7.4 with NaOH. CsCl is from Alfa Aesar, Haverhill, Mass. All other chemicals are from Sigma-Aldrich, St. Louis, Mo. In order to test the degree of internal block by test compounds the compounds were dissolved in internal solution at the indicated test concentration. […] In order to test the degree of external block by test compounds the compounds were dissolved in external solution at the indicated test concentration.
18-24 hours after cells were induced with tetracycline, coverslips were placed into a chamber filled with Normal Ringer solution at room temperature and the chamber placed on a microscope. Pipettes were pulled from borosilicate glass on a P97 puller (Sutter Instrument, Novato, Calif.) and polished with a MF-830 Microforge (Narishige International USA, Inc, Amityville, N.Y.) to have a resistance of 1.5-2.5 MΩ when filled with CsCl internal solution at room temperature. Healthy cells (those that are round and translucent with no visible blemishes) were chosen for seal formation. A seal was formed between the pipette and the cell, and a brief pulse of suction was used to “break in” and establish the whole-cell configuration. The membrane potential was held at −100 mV before the voltage protocol began. Only cells with series resistance between 1.5-5 MΩ were retained for analysis. The voltage protocol was as follows: Cells were held at −100 mV for 12 ms followed by a hyperpolarizing step to −105 mV for 12 ms to monitor the leak. Cells were then stepped back to −100 mV for 40 ms. Cells were then depolarized to −20 mV for 10 ms and then returned to −100 mV for 26 ms (The FIGURE).
Once the recording was started, the voltage protocol was run at 30 second intervals for 5 minutes to get a stable baseline. This was followed by four 30-second periods of 5 Hz stimulation of the same voltage protocol separated by 1 minute of rest which was then followed by 0.33 Hz stimulation after the last train. Currents were recorded using PatchMaster software with Heka EPC10 (HEKA Electronics, Lambrecht, Germany). Only cells with inward current amplitudes at −20 mV between 400 pA and 4 nA were accepted. In addition, cells having leak currents greater than 10% of their current amplitudes were discarded.
The data was plotted using the Patchmaster software (HEKA Electronics, Lambrecht, Germany) and analyzed by plotting the minimum current during the voltage step to −20 mV (peak inward current) as a function of time. […]

Compound	PAMPA (10^−6 cm/s) [1]	IC50 (NaV1.7 [2]) [nM]	NaV1.7 Intracellular Inhibition (NaV1.7 [3])
CCCN(CCC)C(=O)C1CCC[N+](CC)(CC(=O)Nc2c(C)cccc2C(=O)OC)C1 (mixture of isomers) [Compound 47]	+ (<0.1 10^−6 cm/s)		
CC[N+]1(CC(=O)Nc2c(C)cccc2C(=O)OC)CCCC(C(=O)NC2CCCC2)C1 (mixture of isomers) [Compound 52]	+ (<0.1 10^−6 cm/s)	1000 to 3000	
CCOC(=O)c1cccc(C)c1NC(=O)C[N+]1(Cc2ccccc2)CCCCCCC1.[Br-] [Compound 10]	+ (<0.1 10^−6 cm/s)		+++ (90-70%)
CC[N+]1(CC(=O)Nc2c(C)cccc2C(=O)OC)CCCC(C(=O)OC2CCCC2)C1.[I-] (centres unmarked) [Compound 22]	+ (<0.1 10^−6 cm/s)	1000 to 3000	
CCOC(=O)C1CCC[N+](CC)(CC(=O)Nc2c(C)cccc2C(=O)OC)C1.[I-] (centres unmarked) [Compound 24]	+ (<0.1 10^−6 cm/s)		++ (70-30%)
CCN(CC)C(=O)C1CCC[N+](CC(=O)Nc2c(C)cccc2C(=O)OC)(Cc2ccccc2)C1.O=C([O-])C(F)(F)F (centres unmarked) [Compound 38]	+ (<0.1 10^−6 cm/s)		++ (70-30%)
CC[N+]1(CC(=O)Nc2c(C)cccc2C(=O)OC)CCCC(C(=O)N(C)C)C1.[I-] (centres unmarked) [Compound 44]	+ (<0.1 10^−6 cm/s)		+ (<30%)
CC[N+]1(CC(=O)Nc2c(C)cccc2C(=O)OC)CCCC(C(=O)NCC(C)C)C1.[I-] (centres unmarked) [Compound 48]	+ (<0.1 10^−6 cm/s)	1000 to 3000	
CC[N+]1(CC(=O)Nc2c(C)cccc2C(=O)OC)CCCC(C(=O)NC(C)C)C1.[I-] (centres unmarked) [Compound 50]	+ (<0.1 10^−6 cm/s)	1000 to 3000	
CCN(CC)C(=O)C1CCC[N+](CC)(CC(=O)Nc2c(C)cccc2C(=O)OC)C1.[I-] (centres unmarked) [Compound 53]	+ (<0.1 10^−6 cm/s)	1000 to 3000	
CCOC(=O)c1cccc(C)c1NC(=O)C[n+]1cccc(C(=O)OC2CCCC2)c1.[Br-] [Compound 68]	+++ (2.0-10.010^−6 cm/s)	3000 to 10000	

Further lines, results first:

PAMPA (10^−6 cm/s) [1]	IC50 (NaV1.7 [2]) [nM]	NaV1.7 Intracellular Inhibition (NaV1.7 [3])	Compound
+++ (2.0-10.010^−6 cm/s)	3000 to 10000		COC(=O)c1cccc(C)c1NC(=O)C[N+]1(Cc2ccccc2)CCCC(C(=O)OC2CCCCC2)C1 (mixture of isomers) [Compound 17]
+ (<0.1 10^−6 cm/s)	1000 to 3000		CCCOC(=O)C1CCC[N+](CC(=O)Nc2c(C)cccc2C(=O)OC)(Cc2ccccc2)C1 (mixture of isomers) [Compound 18]
+ (<0.1 10^−6 cm/s)	1000 to 3000		COC(=O)c1cccc(C)c1NC(=O)C[N+]1(Cc2ccccc2)CCCC(C(=O)OCC(C)C)C1 (mixture of isomers) [Compound 20]
+ (<0.1 10^−6 cm/s)	1000 to 3000		COC(=O)c1cccc(C)c1NC(=O)C[N+]1(Cc2ccccc2)CCCC(C(=O)N2CCCCC2)C1 (mixture of isomers) [Compound 37]
+ (<0.1 10^−6 cm/s)	1000 to 3000		COC(=O)c1cccc(C)c1NC(=O)C[N+]1(Cc2ccccc2)CCCC(C(=O)NC2CCCCC2)C1 (mixture of isomers) [Compound 42]
+ (<0.1 10^−6 cm/s)	1000 to 3000		CC[N+]1(CC(=O)Nc2c(C)cccc2C(=O)OC)CCCC(C(=O)N2CCCCCC2)C1 (mixture of isomers) [Compound 51]
	< 1000		COC(=O)c1cccc(C)c1NC(=O)C[N+]1(Cc2ccccc2)CCCC(C(=O)OC(C)C)C1 (centres unmarked) [Compound 19]
+ (<0.1 10^−6 cm/s)	3000 to 10000		COC(=O)c1cccc(C)c1NC(=O)C[N+]1(Cc2ccccc2)CCCC(C(=O)OC2CCCC2)C1.[Br-] (centres unmarked) [Compound 21]
+ (<0.1 10^−6 cm/s)		+ (<30%)	CCCN(CCC)C(=O)C1CCC[N+](CC(=O)Nc2c(C)cccc2C(=O)OC)(Cc2ccccc2)C1.[Br-] (centres unmarked) [Compound 39]

Reference: patent publication US10927096B2, “Ester substituted ion channel blockers and methods for use” (Nocion Therapeutics, Inc., priority 2019, dated 2021)
